# Source: PubChem BioAssay (NCI)
#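 Exposure lasted 48 hours, with cells grown in 96-well plates and compounds tested at five concentrations. GI50 marks 50% less growth. TGI denotes the concentration required for complete inhibition of growth.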
# What was measured:
# Assay in all cases: NCI tumour cell line growth inhibition, 48 h
# HT29 colon = system: HT29 colon
# MDA-MB-231 breast = system: MDA-MB-231 breast
# HS 578T breast = system: HS 578T breast
# OVCAR-8 ovarian = system: OVCAR-8 ovarian
# A549 NSCLC = system: A549 NSCLC
# SK-MEL-5 melanoma = system: SK-MEL-5 melanoma
# HCC-2998 colon = system: HCC-2998 colon
# SNB-19 CNS = system: SNB-19 CNS
# MDA-MB-435 = system: MDA-MB-435
# MALME-3M melanoma = system: MALME-3M melanoma
# NCI-H23 lung = system: NCI-H23 lung
# LOX IMVI melanoma = system: LOX IMVI melanoma
# SF-268 CNS = system: SF-268 CNS
# SK-OV-3 ovarian = system: SK-OV-3 ovarian
# SNB-75 CNS = system: SNB-75 CNS
# MCF7 breast = system: MCF7 breast
# CCRF-CEM leukemia = system: CCRF-CEM leukemia
# NCI/ADR-RES ovarian = system: NCI/ADR-RES ovarian
# MOLT-4 leukemia = system: MOLT-4 leukemia
# SF-539 CNS = system: SF-539 CNS
# SW-620 colon = system: SW-620 colon
# RXF 393 renal = system: RXF 393 renal
# SN12C renal = system: SN12C renal
# 786-0 renal = system: 786-0 renal
# T-47D breast = system: T-47D breast
# HOP-92 NSCLC = system: HOP-92 NSCLC
# EKVX NSCLC = system: EKVX NSCLC
# SR leukemia = system: SR leukemia
# SF-295 CNS = system: SF-295 CNS
# A498 renal = system: A498 renal
# SK-MEL-28 melanoma = system: SK-MEL-28 melanoma
# UACC-62 melanoma = system: UACC-62 melanoma
# M14 melanoma = system: M14 melanoma
# COLO 205 colon = system: COLO 205 colon
# BT-549 breast = system: BT-549 breast
# U251 CNS = system: U251 CNS
# HL-60(TB) leukemia = system: HL-60(TB) leukemia
# HOP-62 NSCLC = system: HOP-62 NSCLC
# ACHN renal = system: ACHN renal
# UACC-257 melanoma = system: UACC-257 melanoma
# RPMI-8226 leukemia = system: RPMI-8226 leukemia
# NCI-H460 lung = system: NCI-H460 lung
# NCI-H226 lung = system: NCI-H226 lung
# CAKI-1 renal = system: CAKI-1 renal
# HCT-116 colon = system: HCT-116 colon
# OVCAR-5 ovarian = system: OVCAR-5 ovarian
# TK-10 renal = system: TK-10 renal
# DU-145 prostate = system: DU-145 prostate
# NCI-H522 lung = system: NCI-H522 lung
# K-562 leukemia = system: K-562 leukemia
# OVCAR-3 ovarian = system: OVCAR-3 ovarian
# UO-31 renal = system: UO-31 renal
# PC-3 prostate = system: PC-3 prostate
# IGROV1 ovarian = system: IGROV1 ovarian
# OVCAR-4 ovarian = system: OVCAR-4 ovarian
# SK-MEL-2 melanoma = system: SK-MEL-2 melanoma
# KM12 colon = system: KM12 colon
# HCT-15 colon = system: HCT-15 colon
compound,measurement,setting,value
O=C(CCl)Nc1ccc2c(c1)C(=O)c1ccccc1C2=O,GI50,HT29 colon,1.66 µM
same,TGI,HT29 colon,3.8 µM
same,GI50,MDA-MB-231 breast,1.65 µM
same,TGI,MDA-MB-231 breast,4.64 µM
same,GI50,HS 578T breast,3.56 µM
same,TGI,HS 578T breast,20.1 µM
same,GI50,OVCAR-8 ovarian,2.35 µM
same,TGI,OVCAR-8 ovarian,6.35 µM
same,GI50,A549 NSCLC,8.51 µM
same,TGI,A549 NSCLC,23.5 µM
same,GI50,SK-MEL-5 melanoma,1.16 µM
same,TGI,SK-MEL-5 melanoma,2.42 µM
same,GI50,HCC-2998 colon,1.86 µM
same,TGI,HCC-2998 colon,3.65 µM
same,GI50,SNB-19 CNS,2.94 µM
same,TGI,SNB-19 CNS,11.5 µM
same,GI50,MDA-MB-435,2.05 µM
same,TGI,MDA-MB-435,5.46 µM
same,GI50,MALME-3M melanoma,1.39 µM
same,TGI,MALME-3M melanoma,3.11 µM
same,GI50,NCI-H23 lung,1.7 µM
same,TGI,NCI-H23 lung,4.15 µM
same,GI50,LOX IMVI melanoma,0.39 µM
same,TGI,LOX IMVI melanoma,0.994 µM
same,GI50,SF-268 CNS,1.79 µM
same,TGI,SF-268 CNS,4.59 µM
same,GI50,SK-OV-3 ovarian,3.71 µM
same,TGI,SK-OV-3 ovarian,17 µM
same,GI50,SNB-75 CNS,2.19 µM
same,TGI,SNB-75 CNS,8.44 µM
same,GI50,MCF7 breast,1.63 µM
same,TGI,MCF7 breast,3.64 µM
same,GI50,CCRF-CEM leukemia,0.676 µM
same,TGI,CCRF-CEM leukemia,> 100 µM
same,GI50,NCI/ADR-RES ovarian,2.16 µM
same,TGI,NCI/ADR-RES ovarian,6.56 µM
same,GI50,MOLT-4 leukemia,2.24 µM
same,TGI,MOLT-4 leukemia,> 100 µM
same,GI50,SF-539 CNS,2.44 µM
same,TGI,SF-539 CNS,6.49 µM
same,GI50,SW-620 colon,1.43 µM
same,TGI,SW-620 colon,2.92 µM
same,GI50,RXF 393 renal,2 µM
same,TGI,RXF 393 renal,3.78 µM
same,GI50,SN12C renal,1.41 µM
same,TGI,SN12C renal,3.01 µM
same,GI50,786-0 renal,1.67 µM
same,TGI,786-0 renal,3.56 µM
same,GI50,T-47D breast,1.11 µM
same,TGI,T-47D breast,2.87 µM
same,GI50,HOP-92 NSCLC,3.72 µM
same,TGI,HOP-92 NSCLC,9.73 µM
same,GI50,EKVX NSCLC,2.2 µM
same,TGI,EKVX NSCLC,6.35 µM
same,GI50,SR leukemia,0.0567 µM
same,TGI,SR leukemia,> 100 µM
same,GI50,SF-295 CNS,2.42 µM
same,TGI,SF-295 CNS,10.5 µM
same,GI50,A498 renal,12.2 µM
same,TGI,A498 renal,25.8 µM
same,GI50,SK-MEL-28 melanoma,3.8 µM
same,TGI,SK-MEL-28 melanoma,9.98 µM
same,GI50,UACC-62 melanoma,1.51 µM
same,TGI,UACC-62 melanoma,3.17 µM
same,GI50,M14 melanoma,1.31 µM
same,TGI,M14 melanoma,2.98 µM
same,GI50,COLO 205 colon,1.48 µM
same,TGI,COLO 205 colon,3.33 µM
same,GI50,BT-549 breast,1.46 µM
same,TGI,BT-549 breast,3.58 µM
same,GI50,U251 CNS,1.86 µM
same,TGI,U251 CNS,4.11 µM
same,GI50,HL-60(TB) leukemia,2.41 µM
same,TGI,HL-60(TB) leukemia,5.33 µM
same,GI50,HOP-62 NSCLC,2.98 µM
same,TGI,HOP-62 NSCLC,8.5 µM
same,GI50,ACHN renal,1.71 µM
same,TGI,ACHN renal,3.17 µM
same,GI50,UACC-257 melanoma,5.59 µM
same,TGI,UACC-257 melanoma,13.9 µM
same,GI50,RPMI-8226 leukemia,2.04 µM
same,TGI,RPMI-8226 leukemia,5.62 µM
same,GI50,NCI-H460 lung,2.13 µM
same,TGI,NCI-H460 lung,5.61 µM
same,GI50,NCI-H226 lung,2.39 µM
same,TGI,NCI-H226 lung,6.76 µM
same,GI50,CAKI-1 renal,1.59 µM
same,TGI,CAKI-1 renal,2.96 µM
same,GI50,HCT-116 colon,0.79 µM
same,TGI,HCT-116 colon,2.97 µM
same,GI50,OVCAR-5 ovarian,2.5 µM
same,TGI,OVCAR-5 ovarian,6.89 µM
same,GI50,TK-10 renal,1.87 µM
same,TGI,TK-10 renal,3.72 µM
same,GI50,DU-145 prostate,1.8 µM
same,TGI,DU-145 prostate,3.36 µM
same,GI50,NCI-H522 lung,0.533 µM
same,TGI,NCI-H522 lung,1.22 µM
same,GI50,K-562 leukemia,1.03 µM
same,TGI,K-562 leukemia,> 100 µM
same,GI50,OVCAR-3 ovarian,1.72 µM
same,TGI,OVCAR-3 ovarian,3.27 µM
same,GI50,UO-31 renal,1.73 µM
same,TGI,UO-31 renal,3.47 µM
same,GI50,PC-3 prostate,2.77 µM
same,TGI,PC-3 prostate,11.6 µM
same,GI50,IGROV1 ovarian,0.99 µM
same,TGI,IGROV1 ovarian,3.23 µM
same,GI50,OVCAR-4 ovarian,3.48 µM
same,TGI,OVCAR-4 ovarian,11.3 µM
same,GI50,SK-MEL-2 melanoma,1.58 µM
same,TGI,SK-MEL-2 melanoma,3.85 µM
same,GI50,KM12 colon,3.03 µM
same,TGI,KM12 colon,9.34 µM
same,GI50,HCT-15 colon,0.73 µM
same,TGI,HCT-15 colon,2.44 µM
